Experimental data published in the NIST ThermoML archive (doi:10.1021/je700288s).

Experiment: mn = molality of the nth substance listed, in mol/kg
Details: 101 kPa, Liquid; for speed of sound: Sing-around technique in a fixed-path interferometer; for mass density: Vibrating tube method

O=C([O-])CC(O)(CC(=O)O)C(=O)O.[K+] [potassium dihydrogen citrate] + O
Details	mass density [kg/m3]	speed of sound [m/s]
283.15 K, m1 = 0.0063	1000.47	1448.8
283.15 K, m1 = 0.0186	1001.97	1450.1
283.15 K, m1 = 0.0314	1003.53	1451.5
283.15 K, m1 = 0.0407	1004.65	1452.5
283.15 K, m1 = 0.0561	1006.52	1454.2
283.15 K, m1 = 0.0574	1006.67	1454.3
283.15 K, m1 = 0.0868	1010.19	1457.2
283.15 K, m1 = 0.0905	1010.65	1457.9
283.15 K, m1 = 0.1399	1016.4	1462.9
283.15 K, m1 = 0.1655	1019.36	1465.4
283.15 K, m1 = 0.284	1032.79	1477
283.15 K, m1 = 0.396	1044.96	1487.4
283.15 K, m1 = 0.4766	1053.37	1494.6
283.15 K, m1 = 0.5861	1064.69	1504.1
283.15 K, m1 = 0.5922	1065.27	1504.7
283.15 K, m1 = 0.7578	1081.71	1518.5
288.15 K, m1 = 0.0063	999.861	1466.9
288.15 K, m1 = 0.0186	1001.34	1468.2
288.15 K, m1 = 0.0314	1002.87	1469.5
288.15 K, m1 = 0.0407	1003.98	1470.4
288.15 K, m1 = 0.0561	1005.82	1472
288.15 K, m1 = 0.0574	1005.97	1472.1
288.15 K, m1 = 0.0868	1009.45	1475
288.15 K, m1 = 0.0905	1009.9	1475.4
288.15 K, m1 = 0.1399	1015.58	1480.1
288.15 K, m1 = 0.1655	1018.5	1482.5
288.15 K, m1 = 0.284	1031.76	1493.4
288.15 K, m1 = 0.396	1043.8	1503.1
288.15 K, m1 = 0.4766	1052.13	1509.8
288.15 K, m1 = 0.5861	1063.34	1518.9
288.15 K, m1 = 0.5922	1063.9	1519.4
288.15 K, m1 = 0.7578	1080.19	1532.5
293.15 K, m1 = 0.0063	998.956	1483.1
293.15 K, m1 = 0.0186	1000.41	1484.3
293.15 K, m1 = 0.0314	1001.93	1485.5
293.15 K, m1 = 0.0407	1003.03	1486.4
293.15 K, m1 = 0.0561	1004.84	1487.9
293.15 K, m1 = 0.0574	1004.99	1488
293.15 K, m1 = 0.0868	1008.42	1490.7
293.15 K, m1 = 0.0905	1008.87	1491
293.15 K, m1 = 0.1399	1014.48	1495.5
293.15 K, m1 = 0.1655	1017.37	1497.7
293.15 K, m1 = 0.284	1030.49	1507.8
293.15 K, m1 = 0.396	1042.41	1517
293.15 K, m1 = 0.4766	1050.65	1523.3
293.15 K, m1 = 0.5861	1061.76	1531.8
293.15 K, m1 = 0.5922	1062.33	1532.3
293.15 K, m1 = 0.7578	1078.48	1544.7
298.15 K, m1 = 0.0063	997.788	1497.3
298.15 K, m1 = 0.0186	999.232	1498.5
298.15 K, m1 = 0.0314	1000.73	1499.6
298.15 K, m1 = 0.0407	1001.82	1500.4
298.15 K, m1 = 0.0561	1003.61	1501.8
298.15 K, m1 = 0.0574	1003.75	1501.9
298.15 K, m1 = 0.0868	1007.15	1504.4
298.15 K, m1 = 0.0905	1007.6	1504.7
298.15 K, m1 = 0.1399	1013.15	1508.8
298.15 K, m1 = 0.1655	1016	1510.9
298.15 K, m1 = 0.284	1029	1520.5
298.15 K, m1 = 0.396	1040.81	1529
298.15 K, m1 = 0.4766	1048.98	1535
298.15 K, m1 = 0.5861	1060	1543
298.15 K, m1 = 0.5922	1060.56	1543.5
298.15 K, m1 = 0.7578	1076.59	1555.2
303.15 K, m1 = 0.0063	996.385	1509.7
303.15 K, m1 = 0.0186	997.809	1510.7
303.15 K, m1 = 0.0314	999.297	1511.8
303.15 K, m1 = 0.0407	1000.37	1512.5
303.15 K, m1 = 0.0561	1002.15	1513.8
303.15 K, m1 = 0.0574	1002.29	1513.9
303.15 K, m1 = 0.0868	1005.65	1516.3
303.15 K, m1 = 0.0905	1006.09	1516.6
303.15 K, m1 = 0.1399	1011.59	1520.5
303.15 K, m1 = 0.1655	1014.43	1522.4
303.15 K, m1 = 0.284	1027.31	1531.4
303.15 K, m1 = 0.396	1039.02	1539.4
303.15 K, m1 = 0.4766	1047.12	1545
303.15 K, m1 = 0.5861	1058.06	1552.6
303.15 K, m1 = 0.5922	1058.61	1553
303.15 K, m1 = 0.7578	1074.53	1564.2
308.15 K, m1 = 0.0063	994.762	1520.3
308.15 K, m1 = 0.0186	996.176	1521.3
308.15 K, m1 = 0.0314	997.649	1522.3
308.15 K, m1 = 0.0407	998.709	1523
308.15 K, m1 = 0.0561	1000.47	1524.2
308.15 K, m1 = 0.0574	1000.61	1524.3
308.15 K, m1 = 0.0868	1003.95	1526.5
308.15 K, m1 = 0.0905	1004.38	1526.8
308.15 K, m1 = 0.1399	1009.84	1530.4
308.15 K, m1 = 0.1655	1012.65	1532.3
308.15 K, m1 = 0.284	1025.42	1540.7
308.15 K, m1 = 0.396	1037.05	1548.2
308.15 K, m1 = 0.4766	1045.1	1553.5
308.15 K, m1 = 0.5861	1055.95	1560.7
308.15 K, m1 = 0.5922	1056.5	1561.1
308.15 K, m1 = 0.7578	1072.31	1571.6
